Experimental data: US20250163052A1, “cGAS INHIBITORS AND USES THEREOF” (Cornell University, priority 2022, published 2025)

Assays:
h-cGAS = h-cGAS (Homo sapiens, UniProt Q8N884); experiment: Cell-free human cGAS enzyme inhibition assay (ATP depletion, Kinase-Glo Max); assay type: biochemical; conditions: 3 h; for inhibition at 1 µM: read-out: h-cGAS, conc. 1 μM; for inhibition at 10 µM: read-out: h-cGAS, conc. 10 μM
Method: (§1) Cell-free mouse and human cGAS enzyme inhibition assay (Table 2). Activity of all compounds (in Table 1) against m-cGAS (30 nM) and or h-cGAS, (100 nM) was determined by measuring the conversion of ATP and GTP (100 μM each) to cGAMP in the presence of dsDNA (5 ug/mL) in a reaction buffer composed of Tris-HCl (20 mM, pH7.4), NaCl (150 mM), MnCl2 (0.2 mM, h-cGAS) or MgCl2 (5 mM, m-cGAS) and Tween-20 (0.01%), and the remaining ATP concentration using Kinase-Glo®Max Luminescent Kinase Assay (Promega, Madison, WI), as described (Lama, et. al., 2019). Briefly, 10 μl of a master mix of 0.4 mM ATP, 0.4 mM GTP, 0.02 mg/mL dsDNA in the reaction buffer supplemented with 2 mM DTT was added to reaction wells containing TDI-6570 or TDI-8246 (2× of the desired concentration) in the same buffer ([…]) using a Thermo 8-channel Multidrop Combi dispenser. Next, 10 μl of a 4×m-cGAS (0.120 μM) or h-cGAS (0.4 μM) solution in the reaction buffer supplemented with 2 mM DTT was added to appropriate wells. Similar sets of reactions without cGAS or the inhibitor was set by adding the buffer alone. The reactions with the plates sealed were incubated at 37° C. (1 hour for m-cGAS and 3 hours for h-cGAS) and stopped by addition of 40 μl of the Kinase-Glo®Max. The luminescence was recorded in relative light units (RLUs) using a Biotek Synergy H1 Hybrid plate reader (BioTek, Winooski, VT). […] All reactions were run in triplicates and calculated using GraphPad Prism 9. The values represent mean IC50±S.D.

IFNB = experiment: THP1-Dual cells transfected with DNA, Ifnb expression (Quantiluc); assay type: cell-based; conditions: Homo sapiens; for inhibition at 10 µM: THP-1, 10 μM; for inhibition at 30 µM: THP-1, 30 μM
Method: (§2) Evaluation of active cGAS inhibitors in THP1 cells (Table 3). Cellular activity of all compounds (in Table 3) was determined using THP1-Dual™ cells as described (Lama et. al., 2019). THP1-Dual™ cells (Invivogen) (50000 cells in 100 μl media) were seeded into each well of a 96-well plate and treated with compounds at various dilution for 4 hours. Subsequently, cells were transfected with DNA (2 ug/ml) and lipofectamine and incubate the cells were incubated overnight. Ifnb expression was measured in cell supernatant using Quantiluc, nfkb expression was determined using Quantiblue, and cell viability using Promega® CellTiter-Glo®.

THP1 cells = experiment: THP1-Dual cells, cell viability (CellTiter-Glo); assay type: cell-based
Method: as §2

m-cGAS = m-cGAS (Mus musculus, UniProt Q8C6L5); experiment: Cell-free mouse cGAS enzyme inhibition assay (ATP depletion, Kinase-Glo Max); assay type: biochemical; conditions: 1 h; for inhibition at 10 µM: read-out: m-cGAS, conc. 10 μM; for inhibition at 1 µM: read-out: m-cGAS, conc. 1 μM
Sequence of m-cGAS (Q8C6L5 whole entry): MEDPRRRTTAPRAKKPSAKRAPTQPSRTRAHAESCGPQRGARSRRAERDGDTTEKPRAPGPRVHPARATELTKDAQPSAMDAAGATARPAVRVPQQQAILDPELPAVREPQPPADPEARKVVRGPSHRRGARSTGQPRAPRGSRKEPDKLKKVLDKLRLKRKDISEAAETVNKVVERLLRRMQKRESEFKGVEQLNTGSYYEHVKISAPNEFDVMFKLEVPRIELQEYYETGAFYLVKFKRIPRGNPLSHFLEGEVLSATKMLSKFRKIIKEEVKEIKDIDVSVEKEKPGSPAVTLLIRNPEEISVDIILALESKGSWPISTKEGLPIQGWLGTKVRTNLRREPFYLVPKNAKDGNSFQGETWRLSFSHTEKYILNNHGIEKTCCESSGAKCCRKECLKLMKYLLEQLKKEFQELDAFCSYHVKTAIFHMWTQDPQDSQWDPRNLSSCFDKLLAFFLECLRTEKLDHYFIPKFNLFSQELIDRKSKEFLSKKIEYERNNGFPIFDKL
Method: as §1

Sequence of h-cGAS (Q8N884 whole entry): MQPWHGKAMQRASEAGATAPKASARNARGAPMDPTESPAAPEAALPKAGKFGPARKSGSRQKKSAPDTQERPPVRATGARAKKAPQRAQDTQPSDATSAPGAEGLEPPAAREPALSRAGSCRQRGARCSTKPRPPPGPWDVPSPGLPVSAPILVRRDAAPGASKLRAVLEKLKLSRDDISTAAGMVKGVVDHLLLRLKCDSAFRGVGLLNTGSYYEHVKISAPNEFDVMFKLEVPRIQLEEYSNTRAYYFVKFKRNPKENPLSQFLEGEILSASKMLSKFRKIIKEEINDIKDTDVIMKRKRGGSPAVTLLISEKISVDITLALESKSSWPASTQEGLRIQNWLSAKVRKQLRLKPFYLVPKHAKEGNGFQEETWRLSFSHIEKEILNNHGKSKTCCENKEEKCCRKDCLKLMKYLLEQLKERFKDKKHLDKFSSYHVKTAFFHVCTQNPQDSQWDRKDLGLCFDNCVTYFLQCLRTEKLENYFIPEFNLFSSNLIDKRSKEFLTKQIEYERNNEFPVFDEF

SMILES	inhibition at 1 µM (h-cGAS) [%]	inhibition at 10 µM (h-cGAS) [%]	inhibition at 10 µM (IFNB) [%]	inhibition at 30 µM (IFNB) [%]	Cell viability 10 μM (THP1 cells)	Cell viability 30 μM (THP1 cells)	inhibition at 10 µM (m-cGAS) [%]	inhibition at 1 µM (m-cGAS) [%]
NCC(=O)N1CCc2c(oc3c(Cl)c(Cl)cc(-c4cncnc4)c23)C1 [Compound 39]	0 to 24	75 to 100	25 to 49	75 to 100	+++ (+, ++, and +++ mean the compound respectively shows 25-49%; 50-74%; or 75-100% viability to cells)	+++ (+, ++, and +++ mean the compound respectively shows 25-49%; 50-74%; or 75-100% viability to cells)		
O=C(CO)N1CCc2c(sc3c(Cl)c(Cl)cc(-c4cncs4)c23)C1 [Compound 70]		0 to 24						
O=C(CO)N1CCc2c(sc3c(Cl)c(Cl)cc(-c4ccncc4)c23)C1 [Compound 69]		0 to 24						
O=C(CO)N1CCc2oc3c(Cl)c(Cl)cc(-c4nccs4)c3c2C1 [Compound 31]	50 to 74	75 to 100	50 to 74	50 to 74	+++ (+, ++, and +++ mean the compound respectively shows 25-49%; 50-74%; or 75-100% viability to cells)	+++ (+, ++, and +++ mean the compound respectively shows 25-49%; 50-74%; or 75-100% viability to cells)		
O=C(CO)N1CCc2c(sc3c(Cl)c(Cl)ccc23)C1 [Compound 58]	0 to 24	50 to 74					75 to 100	
O=C(CO)N1CCc2c(sc3c(Cl)c(Cl)cc(-c4cccnc4)c23)C1 [Compound 68]		0 to 24						
CNc1ccc(-c2cc(Cl)c(Cl)c3sc4c(c23)CCN(C(=O)CO)C4)cn1 [Compound 66]		0 to 24						
Cn1cc(-c2cc(Cl)c(Cl)c3oc4c(c23)CCN(C(=O)CN)C4)cn1 [Compound 40]	50 to 74	75 to 100	75 to 100	75 to 100	+++ (+, ++, and +++ mean the compound respectively shows 25-49%; 50-74%; or 75-100% viability to cells)	− (Cell viability <24%, in THP1 cells is expressed as “−”)		
CC(C)(C)OC(=O)N1CCCC1C(=O)N1CCc2[nH]c3c(Cl)c(Cl)cc(-c4ccc(N)nc4)c3c2C1 (stereo not drawn) [Compound 13]		0 to 24					0 to 24	
O=C(CO)N1CCc2c(sc3c(Cl)c(Cl)cc(-c4ccco4)c23)C1 [Compound 64]	0 to 24	25 to 49						
CC(C)(N)C(=O)N1CCc2sc3c(Cl)c(Cl)cc(-c4ccc(N)nc4)c3c2C1 [Compound 56]		50 to 74	75 to 100	75 to 100	+ (+, ++, and +++ mean the compound respectively shows 25-49%; 50-74%; or 75-100% viability to cells)	− (Cell viability <24%, in THP1 cells is expressed as “−”)	0 to 24	
Cn1cc(-c2cc(Cl)c(Cl)c3nc4c(n23)CN(C(=O)CN)CC4)cn1 [Compound 101]		0 to 24					0 to 24	
Cn1ccc(-c2cc(Cl)c(Cl)c3sc4c(c23)CCN(C(=O)CO)C4)n1 [Compound 60]		25 to 49					50 to 74	0 to 24
Cn1c2c(c3c(-c4ccn[nH]4)cc(Cl)c(Cl)c31)CN(C(=O)C1CCCN1)CC2 (stereo not drawn) [Compound 18]		0 to 24					0 to 24	
Cn1ccc(-c2cc(Cl)c(Cl)c3oc4c(c23)CCN(C(=O)CN)C4)n1 [Compound 41]	50 to 74	75 to 100	50 to 74	75 to 100	+++ (+, ++, and +++ mean the compound respectively shows 25-49%; 50-74%; or 75-100% viability to cells)	− (Cell viability <24%, in THP1 cells is expressed as “−”)		
Cn1c2c(c3c(-c4ccc(O)nc4)cc(Cl)c(F)c31)CN(C(=O)CO)CC2 [Compound 2]		0 to 24					0 to 24	
Cn1c2c(c3c(-c4ccc(N)nc4)cc(Cl)c(Cl)c31)CN(C(=O)C1CCCN1C(=O)OC(C)(C)C)CC2 (stereo not drawn) [Compound 14]		0 to 24					0 to 24	

SMILES	inhibition at 1 µM (h-cGAS) [%]	inhibition at 10 µM (h-cGAS) [%]	inhibition at 10 µM (IFNB) [%]	inhibition at 30 µM (IFNB) [%]	Cell viability 10 μM (THP1 cells)	Cell viability 30 μM (THP1 cells)	inhibition at 10 µM (m-cGAS) [%]	inhibition at 1 µM (m-cGAS) [%]
O=C(CO)N1CCc2sc3c(Cl)c(Cl)cc(-c4cc[nH]n4)c3c2C1 [Compound 50]		0 to 24					0 to 24	
O=C(CO)N1CCc2oc3c(Cl)c(Cl)cc(-c4cn[nH]c4)c3c2C1 [Compound 29]	25 to 49	75 to 100	50 to 74	75 to 100	+++ (+, ++, and +++ mean the compound respectively shows 25-49%; 50-74%; or 75-100% viability to cells)	+++ (+, ++, and +++ mean the compound respectively shows 25-49%; 50-74%; or 75-100% viability to cells)		
NCC(=O)N1CCc2nc3c(Cl)c(Cl)cc(-c4cncnc4)n3c2C1 [Compound 100]		0 to 24					0 to 24	
O=C(CO)N1CCc2nc3c(Cl)c(Cl)cc(-c4cncnc4)n3c2C1 [Compound 98]		0 to 24					0 to 24	
CC(C)(N)C(=O)N1CCc2sc3c(Cl)c(Cl)cc(-c4cc[nH]n4)c3c2C1 [Compound 55]		0 to 24					0 to 24	
O=C(CO)N1CCc2c(sc3c(Cl)c(Cl)cc(-c4cc[nH]n4)c23)C1 [Compound 61]		25 to 49						
Cn1c2c(c3c(-c4ccn[nH]4)cc(Cl)c(Cl)c31)CN(C(=O)C1CCCN1C(=O)OC(C)(C)C)CC2 (stereo not drawn) [Compound 15]		0 to 24					0 to 24	
O=C(CO)N1CCc2oc3c(Cl)c(Cl)cc(-c4cc[nH]n4)c3c2C1 [Compound 28]	25 to 49	50 to 74	50 to 74	50 to 74	+++ (+, ++, and +++ mean the compound respectively shows 25-49%; 50-74%; or 75-100% viability to cells)	+++ (+, ++, and +++ mean the compound respectively shows 25-49%; 50-74%; or 75-100% viability to cells)		
Nc1ccc(-c2cc(Cl)c(Cl)c3[nH]c4c(c23)CN(C(=O)C2(N)CC2)CC4)cn1 [Compound 19]		0 to 24					0 to 24	
O=C(CO)N1CCc2c(sc3c(Cl)c(Cl)cc(-c4cncnc4)c23)C1 [Compound 65]		25 to 49					75 to 100	0 to 24
O=C(CO)N1CCc2oc3c(Cl)c(Cl)cc(-c4ccco4)c3c2C1 [Compound 30]	0 to 24	50 to 74	< 24	25 to 49	+++ (+, ++, and +++ mean the compound respectively shows 25-49%; 50-74%; or 75-100% viability to cells)	+++ (+, ++, and +++ mean the compound respectively shows 25-49%; 50-74%; or 75-100% viability to cells)		
CC(C)(N)C(=O)N1CCc2c(sc3c(Cl)c(Cl)cc(-c4cn[nH]c4)c23)C1 [Compound 85]	0 to 24	50 to 74	75 to 100	75 to 100	+ (+, ++, and +++ mean the compound respectively shows 25-49%; 50-74%; or 75-100% viability to cells)	− (Cell viability <24%, in THP1 cells is expressed as “−”)		
O=C(CO)N1CCc2sc3c(Cl)c(Cl)cc(-c4cncnc4)c3c2C1 [Compound 47]	0 to 24	50 to 74					50 to 74	0 to 24
CC(C)(N)C(=O)N1CCc2oc3c(Cl)c(Cl)cc(-c4cc[nH]n4)c3c2C1 [Compound 34]	25 to 49	50 to 74	75 to 100	75 to 100	+++ (+, ++, and +++ mean the compound respectively shows 25-49%; 50-74%; or 75-100% viability to cells)	− (Cell viability <24%, in THP1 cells is expressed as “−”)		
Nc1ccc(-c2cc(Cl)c(Cl)c3sc4c(c23)CN(C(=O)CO)CC4)cn1 [Compound 49]		0 to 24					25 to 49	
O=C(CO)N1CCc2c(sc3c(Cl)c(Cl)cc(-c4nccs4)c23)C1 [Compound 67]		25 to 49						
